The values below come from patent publication US20250206730A1 (AUTOTELIC BIO INC., priority 2022, published 2025).

In assay [1] the test system is TGF-β signaling. In words: Assay for evaluating cellular inhibition of TGF-β signaling, HEK293 (SBE reporter) luciferase reporter. The format is cell-based. The settings on record: Homo sapiens; HEK293 (SBE reporter) stable cells, 0.5% FBS, 2 h pre-treatment, TGF-β1 2 ng/mL 24 h; read-out: IC50 HEK 293 Cell. The method, then:
[Example 2] Assay for Evaluating Cellular Inhibition of TGF-β Signaling
4T1 (SBE-luc2P) transient pool that have SBE-luc2P (hygro) expression plasmid or HEK293 (SBE reporter) stable cells (BPS bioscience) were seeded at 6×10^3 cells/well or 2.5×10^4 cells/well in 96-well plate, respectively. 4T1 (SBE-luc2P) transient pool were pre-treated with novel compound synthesized in Example 1 above in 0.2% FBS at approximately 60% confluence at 37° C. in 5% CO2. Also, HEK293 (SBE reporter) stable cells were pre-treated with each test compounds of formula in 0.5% FBS at approximately 80% confluence at 37° C. in 5% CO2. After 2 hours, cells were treated with TGF-β1 (2 ng/mL) for 24 h at 37° C. in 5% CO2. Cell lysates were prepared using Luciferase Assay (Promega) according to the manufacturer's instruction, and luminescence was measured by a plate reader, Biotek Synergy H1 (Vermont, USA).
For orientation: A reporter such as luciferase makes a cellular process visible.

For another assay, the target named is T1, ALK5 kinase (Homo sapiens, UniProt P36897).
T1 sequence (P36897 34-503): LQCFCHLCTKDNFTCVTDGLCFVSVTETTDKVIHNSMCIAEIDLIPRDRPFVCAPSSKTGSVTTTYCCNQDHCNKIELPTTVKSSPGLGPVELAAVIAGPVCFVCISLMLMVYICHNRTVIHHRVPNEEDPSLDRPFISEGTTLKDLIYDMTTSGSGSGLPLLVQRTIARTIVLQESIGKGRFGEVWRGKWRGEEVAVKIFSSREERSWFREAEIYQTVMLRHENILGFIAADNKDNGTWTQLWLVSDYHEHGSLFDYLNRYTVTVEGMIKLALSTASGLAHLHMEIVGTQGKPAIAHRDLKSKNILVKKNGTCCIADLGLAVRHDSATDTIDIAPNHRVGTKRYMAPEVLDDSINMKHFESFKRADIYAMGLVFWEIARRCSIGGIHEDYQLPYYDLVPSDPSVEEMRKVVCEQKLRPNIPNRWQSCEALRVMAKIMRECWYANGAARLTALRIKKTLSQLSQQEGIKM
The experiment in a line: LanthaScreen Eu Kinase Binding Assay. As to conditions: Kinase Tracer 178, Eu-anti-GST Antibody, read-out: IC50 Enzyme. Put shortly: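 Tracer-displacement TR-FRET: after 30 min RT compound–kinase preincubation, Eu-labelled anti-GST antibody plus Kinase Tracer 178 were incubated 60 min at RT. Binding was read as a lower 665 nm/615 nm emission ratio (excitation 340 nm).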
In general terms: In TR-FRET formats the signal depends on donor and acceptor labels being close together.

The test system of assay [2] is TGF-β signaling. In words: Assay for evaluating cellular inhibition of TGF-β signaling, 4T1 (SBE-luc2P) luciferase reporter. Format: cell-based. The settings on record: Mus musculus, 4T1, 4T1 (SBE-luc2P) transient pool, 0.2% FBS, 2 h pre-treatment, TGF-β1 2 ng/mL 24 h; read-out: IC50 4T1 Cell. An outline of the steps:
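Luminescence from SMAD-binding-element luciferase was measured after 24 h of 2 ng/mL TGF-β1 at 37 °C, following 2 h compound pre-treatment. HEK293 stable reporter cells were used at 2.5×10^4/well in 0.5% FBS (~80% confluent); the 4T1 SBE-luc2P transient pool at 6×10^3/well in 0.2% FBS (~60% confluent).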

Broadly, the IC50 is the concentration needed to halve the response being measured.

As for `CCc1nc(-c2ccccc2)c(Oc2ccnc(Nc3ccc(C(=O)NC(C)C)cn3)c2)s1` [A-196, 6-((4-((2-Ethyl-4-phenylthiazol-5-yl)oxy)pyridin-2-yl)amino)-N-isopropylnicotinamide], in the assay with TGF-β signaling [1], the IC50 is below 0.1 µM. For `CCc1nc(-c2ccccc2)c(Oc2ccnc(Nc3ccc(C(=O)NCCN4CCCC4)cn3)c2)s1` [A-199, 6-((4-((2-Ethyl-4-phenylthiazol-5-yl)oxy)pyridin-2-yl)amino)-N-(2-(pyrrolidin-1-yl)ethyl)nicotinamide], in the assay on TGF-β signaling [1], the half-maximal inhibitory concentration (IC50) is below 0.1 µM.

Regarding `CCc1nc(-c2ccccc2)c(Oc2ccnc(Nc3ccc(C(=O)NCCN4CCN(C)CC4)cn3)c2)s1` [A-201, 6-((4-((2-Ethyl-4-phenylthiazol-5-yl)oxy)pyridin-2-yl)amino)-N-(2-(4-methylpiperazin-1-yl)ethyl)nicotinamide], the IC50 in the assay with TGF-β signaling [1] was below 0.1 µM. Turning to `CCc1nc(-c2ccccc2)c(Oc2ccnc(Nc3ccc(C(=O)NCCN4CCN(C(C)C)CC4)cn3)c2)s1` [A-202, 6-((4-((2-Ethyl-4-phenylthiazol-5-yl)oxy)pyridin-2-yl)amino)-N-(2-(4-isopropylpiperazin-1-yl)ethyl)nicotinamide], the IC50 in the assay with TGF-β signaling [1] was below 0.1 µM.

In the case of `CCc1nc(-c2ccccc2)c(Oc2ccnc(Nc3ccc(C(=O)NCCN4CCN(CC)CC4)cn3)c2)s1` [A-203, 6-((4-((2-Ethyl-4-phenylthiazol-5-yl)oxy)pyridin-2-yl)amino)-N-(2-(4-ethylpiperazin-1-yl)ethyl)nicotinamide], the IC50 with TGF-β signaling [1] was below 0.1 µM. On the same count and under the same terms, to `CCc1nc(-c2ccccc2)c(Oc2ccnc(Nc3ccc(N4CCC(N)C4)cn3)c2)s1` (stereo not drawn) [A-204, 5-(3-Aminopyrrolidin-1-yl)-N-(4-((2-ethyl-4-phenylthiazol-5-yl)oxy)pyridin-2-yl)pyridin-2-amine] belongs below 0.1 µM; to `CCc1nc(-c2ccccc2)c(Oc2ccnc(Nc3ccc(NCCN4CCN(C(C)C)CC4)cc3)c2)s1` [A-205, N^1-(4-((2-Ethyl-4-phenylthiazol-5-yl)oxy)pyridin-2-yl)-N^4-(2-(4-isopropylpiperazin-1-yl)ethyl)benzene-1,4-diamine], below 0.1 µM. `CCc1nc(-c2ccccc2)c(Oc2ccnc(Nc3ccc(NCCN4CCN(C)CC4)cc3)c2)s1` [A-206, N^1-(4-((2-Ethyl-4-phenylthiazol-5-yl)oxy)pyridin-2-yl)-N^4-(2-(4-methylpiperazin-1-yl)ethyl)benzene-1,4-diamine]: the IC50 in the assay with TGF-β signaling [1] is below 0.1 µM. Same read-out and setting: to `CCc1nc(-c2ccccc2)c(Oc2ccnc(Nc3ccc(NCCN4CCN(CC)CC4)cc3)c2)s1` [A-207, N^1-(4-((2-Ethyl-4-phenylthiazol-5-yl)oxy)pyridin-2-yl)-N^4-(2-(4-ethylpiperazin-1-yl)ethyl)benzene-1,4-diamine] belongs below 0.1 µM; to `CCc1nc(-c2ccccc2)c(Oc2ccnc(Nc3ccc(NCCN4CCCC4)cc3)c2)s1` [A-208, N^1-(4-((2-Ethyl-4-phenylthiazol-5-yl)oxy)pyridin-2-yl)-N^4-(2-(pyrrolidin-1-yl)ethyl)benzene-1,4-diamine], below 0.1 µM.

On to `CCc1nc(-c2ccccc2)c(Oc2ccnc(Nc3ccc(NCCN4CCN(C)CC4)cn3)c2)s1` [A-209, N^2-(4-((2-Ethyl-4-phenylthiazol-5-yl)oxy)pyridin-2-yl)-N^5-(2-(4-methylpiperazin-1-yl)ethyl)pyridine-2,5-diamine], for which the IC50 in the assay with TGF-β signaling [1] is below 0.1 µM. For `CCc1nc(-c2ccccc2)c(Oc2ccnc(Nc3ccc(NCCN4CCCC4)cn3)c2)s1` [A-210, N^2-(4-((2-Ethyl-4-phenylthiazol-5-yl)oxy)pyridin-2-yl)-N^5-(2-(pyrrolidin-1-yl)ethyl)pyridine-2,5-diamine], in the assay with TGF-β signaling [1], the IC50 is below 0.1 µM. For `Cc1cccc(-c2nc(C3CC3)sc2Oc2ccnc(Nc3ccc(C(N)=O)cn3)c2)n1` [A-275], the IC50 on ALK5 kinase and in the assay on TGF-β signaling [2] was below 0.1 µM each time. Turning to `Cc1cccc(-c2nc(N(C)C)sc2Oc2ccnc(Nc3cccc(S(N)(=O)=O)c3)c2)n1` [A-283, 3-((4-((2-(Dimethylamino)-4-(6-methylpyridin-2-yl)thiazol-5-yl)oxy)pyridin-2-yl)amino)benzenesulfonamide], the IC50 on ALK5 kinase and in the assay on TGF-β signaling [2] was below 0.1 µM in each case. On to `Cc1cccc(-c2nc(N(C)C)sc2Oc2ccnc(Nc3ccc(C(N)=O)cn3)c2)n1` [A-284, 6-((4-((2-(Dimethylamino)-4-(6-methylpyridin-2-yl)thiazol-5-yl)oxy)pyridin-2-yl)amino)nicotinamide], for which the half-inhibitory concentration (IC50) on ALK5 kinase and in the assay with TGF-β signaling [2] was below 0.1 µM in each case. Take `Cc1cccc(-c2nc(N(C)C)sc2Oc2ccnc(Nc3ccc(C(=O)O)cn3)c2)n1` [A-285, 6-((4-((2-(Dimethylamino)-4-(6-methylpyridin-2-yl)thiazol-5-yl)oxy)pyridin-2-yl)amino)nicotinic acid]: the IC50 at ALK5 kinase and in the assay with TGF-β signaling [2] was below 0.1 µM each time. As to `CNC(=O)c1ccc(Nc2cc(Oc3sc(N(C)C)nc3-c3cccc(C)n3)ccn2)nc1` [A-286, 6-((4-((2-(Dimethylamino)-4-(6-methylpyridin-2-yl)thiazol-5-yl)oxy)pyridin-2-yl)amino)-N-methylnicotinamide], the IC50 at ALK5 kinase and in the assay with TGF-β signaling [2] was below 0.1 µM each time. As for `Cc1cccc(-c2nc(C(C)C)sc2Oc2ccnc(Nc3cccc(S(N)(=O)=O)c3)c2)n1` [A-287, 3-((4-((2-Isopropyl-4-(6-methylpyridin-2-yl)thiazol-5-yl)oxy)pyridin-2-yl)amino)benzenesulfonamide], the IC50 at ALK5 kinase and in the assay on TGF-β signaling [2] was below 0.1 µM each time. For `Cc1cccc(-c2nc(C(C)C)sc2Oc2ccnc(Nc3ccc(C(N)=O)cn3)c2)n1` [A-288, 6-((4-((2-Isopropyl-4-(6-methylpyridin-2-yl)thiazol-5-yl)oxy)pyridin-2-yl)amino)nicotinamide], the IC50 at ALK5 kinase and in the assay on TGF-β signaling [2] was below 0.1 µM each time.

In the case of `Cc1cccc(-c2nc(C(F)(F)F)sc2Oc2ccnc(Nc3cccc(S(N)(=O)=O)c3)c2)n1` [A-289, 3-((4-((4-(6-Methylpyridin-2-yl)-2-(trifluoromethyl)thiazol-5-yl)oxy)pyridin-2-yl)amino)benzenesulfonamide], the IC50 at ALK5 kinase and with TGF-β signaling [2] was below 0.1 µM in each case. For the molecule `Cc1cccc(-c2nc(C(F)(F)F)sc2Oc2ccnc(Nc3ccc(C(N)=O)cn3)c2)n1` [A-290], the IC50 on ALK5 kinase and in the assay on TGF-β signaling [2] was below 0.1 µM each time. As to `Cc1cccc(-c2nc(C(F)(F)F)sc2Oc2ccnc(Nc3cccc(C(N)=O)c3)c2)n1` [A-291, 3-((4-((4-(6-Methylpyridin-2-yl)-2-(trifluoromethyl)thiazol-5-yl)oxy)pyridin-2-yl)amino)benzamide], the IC50 at ALK5 kinase and in the assay with TGF-β signaling [2] was below 0.1 µM each time. As to `CNc1nc(-c2cccc(C)n2)c(Oc2ccnc(Nc3cccc(S(N)(=O)=O)c3)c2)s1` [A-292, 3-((4-((2-(Methylamino)-4-(6-methylpyridin-2-yl)thiazol-5-yl)oxy)pyridin-2-yl)amino)benzenesulfonamide], the IC50 at ALK5 kinase and in the assay on TGF-β signaling [2] was below 0.1 µM throughout. Turning to `Cc1cccc(-c2nc(C)sc2Oc2ccnc(Nc3cccc(S(N)(=O)=O)c3)c2)n1` [A-303, 3-((4-((2-Methyl-4-(6-methylpyridin-2-yl)thiazol-5-yl)oxy)pyridin-2-yl)amino)benzenesulfonamide], the IC50 on ALK5 kinase and in the assay on TGF-β signaling [2] was below 0.1 µM in each case. For `Cc1cccc(-c2nc(C)sc2Oc2ccnc(Nc3cccc(CC#N)c3)c2)n1` [A-304], the IC50 on ALK5 kinase and in the assay on TGF-β signaling [2] was below 0.1 µM each time. As for `Cc1cccc(-c2nc(C)sc2Oc2ccnc(Nc3cccc(C(C)(C)C(=O)O)c3)c2)n1` [A-309, 2-Methyl-2-(3-((4-((2-methyl-4-(6-methylpyridin-2-yl)thiazol-5-yl)oxy)pyridin-2-yl)amino)phenyl)propanoic acid], the IC50 at ALK5 kinase and in the assay with TGF-β signaling [2] was below 0.1 µM throughout. Turning to `CNc1nc(-c2ccccc2)c(Oc2ccnc(Nc3ccc(C(N)=O)cc3)c2)s1` [A-310, 4-((4-((2-(Methylamino)-4-phenylthiazol-5-yl)oxy)pyridin-2-yl)amino)benzamide], the results for the IC50 on ALK5 kinase and with TGF-β signaling [2] were below 0.1 µM and above 0.1 µM, respectively.
